# From the supplement of paper PMC4976141
# ± gives the uncertainty stated by the source.
# Columns and labels:
# MKN-45 [1] = experiment: % viability under drug (72 h drug + 72 h recovery), miRNA mimic relative to NTC in DMSO; higher = more surviving cells; details: drug used in drug arm: crizotinib 1 uM; treatment: drug
# Method: (§1)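 26 miRNA mimics were transfected into 8 cancer cell lines in triplicate. 48 h post-transfection, cells were treated 72 h with DMSO or a line-specific drug, then recovered 72 h drug-free. Drugs: COLO-205 AZ628 1 uM, MKN-45 crizotinib 1 uM, NCI-H596 paclitaxel 6 uM, EVSA-T GDC-0980 2.5 uM, M14 AZ628 1 uM, HCC-1954 GDC-0980 2.5 uM, NCI-H441 carboplatin 2.5 uM, SKBr3 lapatinib 1 uM. Surviving cells are expressed as % of NTC-transfected cells in DMSO (the NTC drug arm itself is about 30-50%), mean +- SEM.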
# NCI-H441 [2] = experiment: as above; details: drug used in drug arm: carboplatin 2.5 uM; treatment: drug
# Method: as §1
# HCC-1954 [3] = experiment: as above; details: drug used in drug arm: GDC-0980 2.5 uM; treatment: drug
# Method: as §1
# EVSA-T [4] = experiment: as above; details: drug used in drug arm: GDC-0980 2.5 uM; treatment: drug
# Method: as §1
# COLO-205 [5] = experiment: as above; details: drug used in drug arm: AZ628 1 uM; treatment: drug
# Method: as §1
# SK-BR-3 [6] = experiment: as above; details: drug used in drug arm: lapatinib 1 uM; treatment: drug
# Method: as §1
# NCI-H596 [7] = experiment: as above; details: drug used in drug arm: paclitaxel 6 uM; treatment: drug
# Method: as §1
# M14 [8] = experiment: as above; details: drug used in drug arm: AZ628 1 uM; treatment: drug
# Method: as §1
# MKN-45 [9] = experiment: % viability in DMSO, miRNA mimic relative to NTC in DMSO; higher = less cytotoxic; details: drug used in drug arm: crizotinib 1 uM; treatment: DMSO
# Method: as §1
# NCI-H441 [10] = experiment: as above; details: drug used in drug arm: carboplatin 2.5 uM; treatment: DMSO
# Method: as §1
# HCC-1954 [11] = experiment: as above; details: drug used in drug arm: GDC-0980 2.5 uM; treatment: DMSO
# Method: as §1
# EVSA-T [12] = experiment: as above; details: drug used in drug arm: GDC-0980 2.5 uM; treatment: DMSO
# Method: as §1
# COLO-205 [13] = experiment: as above; details: drug used in drug arm: AZ628 1 uM; treatment: DMSO
# Method: as §1
# SK-BR-3 [14] = experiment: as above; details: drug used in drug arm: lapatinib 1 uM; treatment: DMSO
# Method: as §1
# NCI-H596 [15] = experiment: as above; details: drug used in drug arm: paclitaxel 6 uM; treatment: DMSO
# Method: as §1
# M14 [16] = experiment: as above; details: drug used in drug arm: AZ628 1 uM; treatment: DMSO
# Method: as §1
# PC9 = experiment: cell count fold change with erlotinib, miRNA mimic vs non-targeting control (log2 ratio); higher = more drug-tolerant survivors than NTC; details: erlotinib 1 µM; 72 h drug + 72 h drug-free recovery; perturbation: miRNA mimic
Sequence,% viability under drug (MKN-45 [1]) [%],% viability under drug (NCI-H441 [2]) [%],% viability under drug (HCC-1954 [3]) [%],% viability under drug (EVSA-T [4]) [%],% viability under drug (COLO-205 [5]) [%],% viability under drug (SK-BR-3 [6]) [%],% viability under drug (NCI-H596 [7]) [%],% viability under drug (M14 [8]) [%],% viability in DMSO (MKN-45 [9]) [%],% viability in DMSO (NCI-H441 [10]) [%],% viability in DMSO (HCC-1954 [11]) [%],% viability in DMSO (EVSA-T [12]) [%],% viability in DMSO (COLO-205 [13]) [%],% viability in DMSO (SK-BR-3 [14]) [%],% viability in DMSO (NCI-H596 [15]) [%],% viability in DMSO (M14 [16]) [%],cell count fold change with erlotinib (PC9)
GAGCCAGUUGGACAGGAGC,1.7 ± 0.21,18.1 ± 1.8,0.433 ± 0.085,0.0905 ± 0.0095,38.9 ± 1,48.1 ± 28,0.418 ± 0.032,6.67 ± 1.9,70.7 ± 8,60.7 ± 17,34 ± 6.2,28.9 ± 1,101 ± 6.3,178 ± 130,66.947 ± 0.021,97.9 ± 14,-4.82
GCGAGGACCCCUCGGGGUCUGAC,1.84 ± 0.18,7.07 ± 0.39,2.54 ± 0.19,1.21 ± 0.28,43 ± 1.1,16.6 ± 6.8,3.656 ± 0.036,8.07 ± 0.6,53.2 ± 7,21.6 ± 1.6,56.4 ± 10,40.8 ± 0.66,105.2 ± 0.58,48.4 ± 5,76.8 ± 10,43.3 ± 5.2,0.35
GUCAUACACGGCUCUCCUCUCU,0.526 ± 0.15,3.92 ± 0.51,1.04 ± 0.13,0.124 ± 0.028,33 ± 2.9,12.8 ± 1.4,0.466 ± 0.077,1.73 ± 0.53,10.5 ± 0.39,8.42 ± 0.15,29.6 ± 4.2,3.87 ± 1.8,106 ± 3.9,17.1 ± 4.5,9.78 ± 0.74,15.5 ± 2.3,-5.7
UAGGUAGUUUCAUGUUGUUGGG,1.52 ± 0.25,6.39 ± 0.21,1.26 ± 0.1,0.1635 ± 0.0015,34.7 ± 0.96,16.1 ± 2.1,1.48 ± 0.34,6.29 ± 0.61,49.8 ± 27,23.3 ± 13,57.1 ± 7.2,11.4 ± 8.3,93.2 ± 4.5,39.6 ± 14,18.4 ± 2.9,69.5 ± 28,-5.25
UCUACAAAGGAAAGCGCUUUCU,1.63 ± 0.29,12.8 ± 1.1,2.02 ± 0.14,1.13 ± 0.19,47.79 ± 0.091,26 ± 2.1,2.12 ± 0.19,6.38 ± 0.2,48.8 ± 8.7,41.8 ± 3.1,68.8 ± 1.8,37.4 ± 6.7,109 ± 3.9,49.1 ± 3.5,80.5 ± 9.8,63 ± 19,0.22
UGUCAGUUUGUCAAAUACCCCA,2.37 ± 0.29,5.55 ± 0.62,0.617 ± 0.0095,0.172 ± 0.0035,38 ± 0.5,27.4 ± 1.9,0.42 ± 0.093,16.4 ± 2.8,142 ± 23,27.3 ± 6.4,31.9 ± 3.4,28 ± 2.1,98.3 ± 4.3,104 ± 12,22.8 ± 1.2,129 ± 10,-5.21
